The structures appear in SMILES notation. Where only a bound is given, the exact number is not on record here.

The assay concerns kynurenine production in IFN-γ-treated KATO-III cells. Nature of the assay: Inhibitory activity on kynurenine production (Test Example 1). Format: cell-based. To be noted: Homo sapiens, IFN-γ treatment, culture for 96 hours, read-out: IC50 value, inhibition of kynurenine production. How it is done:
This assay was performed according to a method modified from the method described in the Journal of Biological Chemistry (J. Biol. Chem.), vol. 263, pp. 2041-2048 (1988). Culture of KATO-III derived from human gastric cancer cells was performed by use of RPMI 1640 (GIBCO, 11875) supplemented with 10 vol % FBS (GIBCO, 10091-148, lot. 665285). 1 μL of a DMSO solution of the test substance was diluted with 199 μL of the culture medium, and the diluted solution was added to wells of a 384 well plate (10 μL/well). Then, IFN-γ (Sigma, 1-3265) was added to the culture medium so that the concentration of IFN-γ was 31.25 ng/mL, and the KATO-III cells were suspended at 50,000 cells/ml, in the culture medium. 40 μL of the suspension was added to each well (2,000 cells/well), and culture of the KATO-III cells was performed at 37° C. under a 5% CO2 atmosphere for 96 hours. The final concentration of DMSO was limited to 0.1 vol % or less so that DMSO itself might not affect the kynurenine concentration measured by this assay. After the culture, 10 μL of a 30 w/v % aqueous trichloroacetic acid solution was added to each well, and incubation was performed at 65° C. for 30 minutes. The plate was centrifuged at 2,500×g for 5 minutes, and then 15 μL of the supernatant in each well was transferred into another 384 well plate. To each of the transferred supernatants, 15 μL of a 2 w/v % solution of p-dimethylaminobenzaldehyde in acetic acid was added, incubation was performed at 65° C. for 20 minutes, and then the absorbance at 480 nm was measured.
[formula] Sample: the absorbance value of the well to which a DMSO solution containing the test substance was added and in which cells were treated with IFN-γ. Blank: the absorbance value of the well to which only DMSO, not the test substance was added and in which cells were treated with IFN-γ. Control: the absorbance value of the well to which only DMSO, not the test substance was added and in which cells were not treated with IFN-γ.
In this assay, expression of IDO in KATO-III cells is induced by IFN-γ treatment and then kynurenine in the culture medium is quantified. It is known that the kynurenine concentration in a culture medium increases in proportion to the enzymatic activity of intracellular IDO (for example, the Journal of Biological Chemistry (J. Biol. Chem.), vol. 263, pp. 2041-2048 (1988)). […] It is known that kynurenine production is inhibited by IDO inhibitors (for example, the Journal of Clinical Investigation (J. Clin. Invest.), vol. 117, No. 5, pp. 1147-1154 […]), and thus it is expected that Compound (I) also has an inhibitory effect on IDO.
In the case of `O=S(=O)(Nc1nc2ccccc2nc1OC(C1CC1)C(F)(F)F)c1ccccc1Cl` (stereo not drawn) [Compound 117, 2-chloro-N-[3-(1-cyclopropyl-2,2,2-trifluoroethoxy)-quinoxalin-2-yl]benzenesulfonamide], the half-inhibitory concentration (IC50) was under 1000 nM. Regarding `CCCNS(=O)(=O)Nc1nc2ccccc2nc1OC(c1cccnc1)C(F)(F)F` (stereo not drawn) [Compound 194, N-propyl-N′-{3-[2,2,2-trifluoro-1-(pyridin-3-yl)ethoxy]-quinoxalin-2-yl}sulfuric diamide], the IC50 was under 1000 nM. With `O=S(=O)(Nc1nc2ccccc2nc1OC(c1cccnc1)C(F)(F)F)c1ccc(Cl)s1` (stereo not drawn) [Compound 146, 5-chloro-N-{3-[2,2,2-trifluoro-1-(pyridin-3-yl)ethoxy]-quinoxalin-2-yl}thiophene-2-sulfonamide], the IC50 is under 1000 nM. The result for `O=S(=O)(Nc1nc2ccccc2nc1OC1(c2cccnc2)CCOCC1)c1ccccc1Cl` [Compound 90, 2-chloro-N-{3-{[4-(pyridin-3-yl)tetrahydropyran-4-yl]oxy}-quinoxalin-2-yl}benzenesulfonamide] reads under 1000 nM. For `Cc1nn(C)c(Cl)c1S(=O)(=O)Nc1nc2ccccc2nc1OC(c1cccnc1)C(F)(F)F` (stereo not drawn) [Compound 141, 5-chloro-1,3-dimethyl-N-{3-[2,2,2-trifluoro-1-(pyridin-3-yl)ethoxy]quinoxalin-2-yl}-1H-pyrazole-4-sulfonamide], the IC50 was under 1000 nM. Regarding `Cc1cc2nc(NS(=O)(=O)c3ccccc3Cl)c(OC(c3cccnc3)C(F)(F)F)nc2cc1C` (stereo not drawn) [Compound 260, 2-chloro-N-{6,7-dimethyl-3-[2,2,2-trifluoro-1-(pyridin-3-yl)ethoxy]quinoxalin-2-yl}benzenesulfonamide], the IC50 fell in the range of 1000 to 10000 nM. The result for `O=S(=O)(Cc1ccccc1)Nc1nc2ccccc2nc1OC(c1cccnc1)C(F)(F)F` (stereo not drawn) [Compound 147, 1-phenyl-N-{3-[2,2,2-trifluoro-1-(pyridin-3-yl)ethoxy]-quinoxalin-2-yl}methanesulfonamide] reads under 1000 nM.

For the compound `O=S(=O)(Nc1nc2ccccc2nc1OCc1ccc2ccccc2c1)c1cccc(Cl)c1Cl` [Compound 10, 2,3-dichloro-N-{3-[(2-naphthyl)methoxy]quinoxalin-2-yl}-benzenesulfonamide], the IC50 was under 1000 nM. For `Cc1ccc(C(Oc2nc3ccccc3nc2NS(=O)(=O)NC2CC2)C(F)(F)F)c[n+]1[O-]` (stereo not drawn) [Compound 289, 5-{1-[3-(N-cyclopropylsulfamoylamino)quinoxalin-2-yloxy]-2,2,2-trifluoroethyl}-2-methylpyridine 1-oxide], the IC50 was in the range of 1000 to 10000 nM. As for `O=S(=O)(Nc1ncc(Cl)nc1OCc1ccc2ccccc2c1)c1cccc(Cl)c1Cl` [Compound 3], the IC50 lay within 1000 to 10000 nM. In the case of `CCCS(=O)(=O)Nc1nc2ccccc2nc1OC(C(F)(F)F)C1(O)CCOCC1` (stereo not drawn) [Compound 352, N-{3-[2,2,2-trifluoro-1-(4-hydroxytetrahydro-2H-pyran-4-yl)ethoxy]quinoxalin-2-yl}propane-1-sulfonamide], the IC50 is 1000 to 10000 nM. To `CCCS(=O)(=O)Nc1nc2ccccc2nc1OC(C1CCN(C)CC1)C(F)(F)F` (stereo not drawn) [Compound 326, N-{3-[2,2,2-trifluoro-1-(1-methylpiperidin-4-yl)ethoxy]-quinoxalin-2-yl}propane-1-sulfonamide] belongs 1000 to 10000 nM; to `CC(Sc1nc2ccccc2nc1NS(=O)(=O)c1ccccc1Cl)c1ccccc1` (stereo not drawn) [Compound 224, 2-chloro-N-[3-(1-phenylethylthio)quinoxalin-2-yl]benzenesulfonamide], under 1000 nM; to `CCCS(=O)(=O)Nc1nc2ccccc2nc1OC(C1CCN(C(=O)CC)CC1)C(F)(F)F` (stereo not drawn) [Compound 340, N-{3-[2,2,2-trifluoro-1-(1-propionylpiperidin-4-yl)ethoxy]-quinoxalin-2-yl}propane-1-sulfonamide], under 1000 nM. In the case of `CN1CCOc2cc(S(=O)(=O)Nc3nc4ccccc4nc3OC(c3cccnc3)C(F)(F)F)ccc21` (stereo not drawn) [Compound 165, 4-methyl-N-{3-[2,2,2-trifluoro-1-(pyridin-3-yl)ethoxy]-quinoxalin-2-yl}-3,4-dihydro-2H-benzo[b][1,4]oxazine-7-sulfonamide], the 50% inhibitory concentration (IC50) was under 1000 nM. Regarding `O=S(=O)(Nc1nc2ccccc2nc1OC(c1cccnc1)C(F)(F)F)NC1CC1` (stereo not drawn) [Compound 189, N-cyclopropyl-N′-{3-[2,2,2-trifluoro-1-(pyridin-3-yl)-ethoxy]quinoxalin-2-yl}sulfuric diamide], the IC50 was under 1000 nM. The result for `O=S(=O)(Nc1nc2ccccc2nc1OC(C1CCOC1)C(F)(F)F)c1ccccc1Cl` (stereo not drawn) [Compound 136, 2-chloro-N-{3-[2,2,2-trifluoro-1-(tetrahydrofuran-3-yl)-ethoxy]quinoxalin-2-yl}benzenesulfonamide] reads under 1000 nM; that for `CCOC(CCNS(=O)(=O)Nc1nc2ccccc2nc1OC(c1cccnc1)C(F)(F)F)OCC` (stereo not drawn) [Compound 272, N-{3-[2,2,2-trifluoro-1-(pyridin-3-yl)ethoxy]quinoxalin-2-yl}-N′-(3,3-diethoxypropyl)-sulfuric diamide], under 1000 nM; that for `O=S(=O)(Nc1nc2ccccc2nc1OCc1ccncc1)c1cccc(Cl)c1Cl` [Compound 26, 2,3-dichloro-N-{3-[(pyridin-4-yl)methoxy]quinoxalin-2-yl}-benzenesulfonamide], 1000 to 10000 nM.

Consider `O=S(=O)(Nc1nc2ccccc2nc1OCc1ccc2ccccc2c1)c1ccc(Cl)c(Cl)c1` [Compound 30, 3,4-dichloro-N-{3-[(2-naphthyl)methoxy]quinoxalin-2-yl}-benzenesulfonamide], for which the IC50 was 1000 to 10000 nM. For the compound `COc1ccc(C(Oc2nc3ccccc3nc2NS(=O)(=O)c2ccccc2Cl)C(F)(F)F)cn1` (stereo not drawn) [Compound 64, 2-chloro-N-{3-[2,2,2-trifluoro-1-(6-methoxypyridin-3-yl)-ethoxy]quinoxalin-2-yl}benzenesulfonamide], the IC50 is under 1000 nM. In the case of `Cn1cncc1C(Oc1nc2ccccc2nc1NS(=O)(=O)c1ccccc1Cl)C(F)(F)F` (stereo not drawn) [Compound 175, 2-chloro-N-{3-[2,2,2-trifluoro-1-(1-methyl-1H-imidazol-5-yl)ethoxy]quinoxalin-2-yl}benzenesulfonamide], the IC50 was under 1000 nM. The result for `Cc1noc(C)c1S(=O)(=O)Nc1nc2ccccc2nc1OC(c1cncs1)C(F)(F)F` (stereo not drawn) [Compound 178, 3,5-dimethyl-N-{3-[2,2,2-trifluoro-1-(thiazol-5-yl)ethoxy]-quinoxalin-2-yl}isoxazole-4-sulfonamide] reads under 1000 nM. `CCCS(=O)(=O)Nc1nc2ccccc2nc1OC(C(F)(F)F)C1(C)CCN(C(C)=O)CC1` (stereo not drawn) [Compound 356, N-{3-[2,2,2-trifluoro-1-(1-acetyl-4-methylpiperidin-4-yl)-ethoxy]quinoxalin-2-yl}propane-1-sulfonamide]: the IC50 was under 1000 nM.

Regarding `N#Cc1cccc(C(Oc2nc3ccccc3nc2NS(=O)(=O)NC2CC2)C(F)(F)F)c1` (stereo not drawn) [Compound 293, N-{3-[1-(3-cyanophenyl)-2,2,2-trifluoroethoxy]quinoxalin-2-yl}-N′-cyclopropyl-sulfuric diamide], the IC50 is under 1000 nM. Consider `Cn1c(C(Oc2nc3ccccc3nc2NS(=O)(=O)c2ccccc2Cl)C(F)(F)F)cc2ccccc21` (stereo not drawn) [Compound 127, 2-chloro-N-{3-[2,2,2-trifluoro-1-(1-methyl-1H-indol-2-yl)-ethoxy]quinoxalin-2-yl}benzenesulfonamide], for which the IC50 was under 1000 nM. As to `CC(Oc1nc2ccccc2nc1NS(=O)(=O)c1ccccc1Cl)C(C)(C)C` (stereo not drawn) [Compound 231, 2-chloro-N-[3-(3,3-dimethylbutan-2-yloxy)quinoxalin-2-yl]-benzenesulfonamide], the IC50 lay in the range of 1000 to 10000 nM. To `N#CC1(COc2nc3ccccc3nc2NS(=O)(=O)c2ccccc2Cl)CCOCC1` [Compound 250, 2-chloro-N-{3-[(4-cyanotetrahydro-2H-pyran-4-yl)methoxy]-quinoxalin-2-yl}benzenesulfonamide] belongs 1000 to 10000 nM; to `CCCS(=O)(=O)Nc1cc2ccccc2nc1OC(c1cccnc1)C(F)(F)F` (stereo not drawn) [Compound 358, N-{2-[2,2,2-trifluoro-1-(pyridin-3-yl)ethoxy]quinolin-3-yl}propane-1-sulfonamide], 1000 to 10000 nM; to `CCCNS(=O)(=O)Nc1nc2ccccc2nc1OC(C1CCOCC1)C(F)(F)F` (stereo not drawn) [Compound 216, N-propyl-N′-{3-[2,2,2-trifluoro-1-(tetrahydro-2H-pyran-4-yl)ethoxy]quinoxalin-2-yl}sulfuric diamide], under 1000 nM.

Usually IC50 stands for the point on the concentration scale where inhibition reaches its midpoint.

Values taken from patent US8673908B2, “Kynurenine production inhibitor” (Kyowa Hakko Kirin Co., Ltd., priority 2008, dated 2014).
